# Measured values from patent publication US12091386B2, “D-amphetamine compounds, compositions, and processes for making and using the same” (Zevra Therapeutics, Inc., priority 2018, dated 2024).
# Experiment: Intravenous pharmacokinetic study in rats (tail vein injection)
# Assay type: in vivo, rat
# Conditions: FIG. 10, versus isonicotinate analogue
smiles,measurement,value
"CCOC(=O)c1ccc[n+](COC(=O)N[C@@H](C)Cc2ccccc2)c1 [AMP-CO2CH2-nicotinate(Et), d-amphetamine-CO2CH2-nicotinate ethyl ester]",exposure to d-amphetamine after intravenous administration compared to AMP-CO2CH2-isonicotinate(Et),decreases exposure to d-amphetamine
